Structures can show the parent of a compound that is named as a salt.
How the values were obtained:
[1] = tested on: male rats in which chronic renal hypertension had been induced; assay: Fall in arterial pressure in rats rendered hypertensive by the GROLLMAN method (chronic renal hypertension); assay type: in vivo, rat; conditions: intragastric; for Fall in A.P.: 25 mg/kg, measured before and 1-6 hours after administration
Description: The first test was carried out on male rats weighing about 120g in which chronic renal hypertension had been induced by the Grollman technique [Proc. Soc. exp.
According to this technique, the animals are anaesthetized with ether and one kidney is displaced from its site without being detached from the body, the suprarenal gland having been first liberated from the kidney but otherwise left intact. The kidney is then bound with twine in the form of a figure eight, just tightly enough to alter slightly the ellipsoid shape of the organ. Ten days later, the other kidney is completely removed together with its suprarenal gland.
Arterial pressure was measured immediately before and 1,2,3,4,5 and 6 hours after administration.

[2] = tested on: nictitating membrane of an anaesthetized cat; assay: Ganglioplegic activity: contractions of the nictitating membrane of anaesthetized cat; assay type: in vivo; conditions: two intravenous doses of 5 mg/kg
Description: (1) The arterial pressure and the tonus of the nictitating membrane of an anaesthetized cat was first noted, after which the contractile reaction of the membrane to an intravenous injection of adrenaline and to electric stimulation of the preganglionic fibre of the cervical sympathetic nerve was tested.

Mouse = assay: Acute toxicity in mice; assay type: in vivo; conditions: 12 days observation
Description: (§1) Finally, acute toxicity trials were carried out on rats and mice which were kept under observation for 12 days following one single administration.

[3] = tested on: rats with saline hypertension; assay: Saline hypertension (technique of DAHL, KNUDSEN, HEINE and LEITL); assay type: in vivo, rat; conditions: intragastric
Description: (§2) All of these tests were performeed on rats which were in a state of hypertension. Each test was divided into two series. In the first series, one single dose of the product under study was administered by intragastric route to each animal and the arterial pressure of the latter was measured every hour for six hours after administration. In the second series the product under study was given by the same route every day for eleven consecutive days and arterial pressure was measured daily throughout this period. The amount of product administered varied from one animal to another.
This test was performed in accordance with the technique of DAHL, KNUDSEN, HEINE and LEITL.
Male rats weighing 55 ± 5g were fed on food containing 8% of NaCl but which was otherwise normal.
After six weeks of this diet, arterial pressure had risen to about 180 mm.Hg.

albino male rats = assay: Ionic ratio in urinary excretion (technique of AMBROSILI et al.); assay type: in vivo, rat; conditions: for Na^+ /K^+ Ratio / K^+ excretion / Na^+ excretion / Urinary excretion: intragastric, 4 hours; for Na^+ /K^+ Ratio: control 1; for K^+ excretion: control 18.5; for Na^+ excretion: control 27.3; for Urinary excretion: control 40
Description: 2 -- Ionic ratio in urinary excretion
This test was performed according to the technique of AMBROSILI et al. (Minerva Nepol. 11,56, 1964).
The substance to be tested was given by intragastric route immediately after the intragastric administration of 50 ml/kg of distilled water to groups of 20 albino male rats weighing 140 { 10g which had been fasting for 18 hours.
A control group, also comprising 20 animals, only received the distilled water.
The total amount of urine excreted during the 4 hours following administration was collected and measured and the total Na^+ and K^+ ion excretion values determined.
These values were then converted to millieequivalents per liter (mEq/l.) in order to obtain the correct Na^+ and K^+ ion excretion figures independently of the increase in the amount of urine.
The ionic ratio was obtained according to the following formula: [formula]

[4] = tested on: experimentally induced hypertension; assay: Experimentally induced hypertension, general statements on anti-hypertensive activity; conditions: rat, in vivo
Description: as §2

[5] = tested on: hypertensive effect of acetylcholine in dog; assay: Ganglioplegic activity: hypertensive effect of acetylcholine in anaesthetized atropinized dog
[6] = tested on: rats with neurogenic hypertension; assay: Neurogenic hypertension (technique of KRIEGER and IMBS); assay type: in vivo, rat; conditions: intragastric
Description: as §2
(4) Neurogenic hypertension
This test was performed in accordance with the technique of KRIEGER and IMBS (Circul. Res. 15, 511, 1964 and C.R. Soc. Biol. 162, 778, 1968).
Male rats weighing from 200 to 250g were anaesthetized with ether and 0.5mg of atropine sulphate was administered to them intraperitoneally.
The rats were fixed in a supine position and an incision was made in the front of the neck to expose the neuromuscular bundle comprising the sumpathetic and vagus nerve and the common carotid arteries.
The vagus nerves and the carotid arteries were then carefully isolated while one centimeter was cut out of the sympathetic nerves. […] The area in which the carotids divide was exposed by pulling aside the appropriate neck muscles (sternocleidomastoideus and omohyoideus). The vessels thus liberated were painted with 10% phenol in ethanol. In this way, complete sympathetic denervation was obtained.
A marked rise in arterial pressure was obtained after 5 to 8 days.

[7] = tested on: rats with hypertension of endocrine origin; assay: Hypertension of endocrine origin (DOCA; technique of STANTON and WHITE); assay type: in vivo, rat; conditions: intragastric
Description: as §2
(2) Hypertension of endocrine origin
This test was performed in accordance with the technique of STANTON and WHITE (Arch. Int. Pharmacodyn. 154, 351, 1965).
Female rats weighing 90 ± 10g were anaesthetized with ether and hypertension was produced by ablation of one kidney and the corresponding adrenal gland, after which a dose of 50 mg/kg of desoxycorticosterone acetate (DOCA) was administered subcutaneously five days a week over a period of four weeks. Throughout this period the drinking-water given to the rats contained 1% of NaCl. This was replaced by ordinary tap-water when administration of the desoxycorticosterone ceased.
Under these circumstances, arterial pressure rose to about 200 mm.Hg.

Rat = assay: Acute toxicity in rats; assay type: in vivo; conditions: 12 days observation
Description: as §1

[8] = tested on: rats with genetic hypertension; assay: Genetic hypertension (technique of OKAMOTO and AOKI); assay type: in vivo, rat; conditions: for Maximum fall in A.P.: intragastric
Description: as §2
This test was performed in accordance with the technique of OKAMOTO and AOKI (Jap. Circul. J., 27, 282, 1963), using male rats belonging to a race which has been specially bred to produce animals having high blood pressure.

male albino rats = assay: Volumetric urinary excretion (technique of LIPSCHITZ et al.); assay type: in vivo, rat; conditions: intragastric, 6 hours, % of volume of saline administered
Description: 1 -- Volumetric urinary excretion
This test was performed according to the technique of LIPSCHITZ et al. (J. Pharmacol. exp. Therap. 79, 97, 1943), by using groups of 20 male albino rats weighing from 150 to 200g which had been deprived of food and drink for 18 hours.
The substance to be tested was given by intragastric route immediately after the intragastric administration of 50 ml/kg of a 9°/°° solution of NaCl.
A control group also of 20 rats only received the saline solution. The total amount of urine excreted during the 6 hours following administration was collected and measured.

[9] = tested on: experimentally induced hypertension; conditions: rat, in vivo; cited from earlier work

CCCCN(CCCC)CCNC(Cc1c(CC)oc2ccccc12)=NO [2-(2-Ethyl-3-benzofuranyl)-N-(2-di-n-butylamine-ethyl)-acetamidoxime]
Fall in A.P. [1]: 27 mm.Hg

Cc1oc2ccccc2c1CC(=NO)NCCN1CCOCC1 [2-(2-Methyl-3-benzofuranyl)-N-(2-morpholino-ethyl)-acetamidoxime]
Fall in A.P. [1]: 25 mm.Hg

CCc1oc2ccccc2c1CC(=NO)NCCN1CCOCC1 [L 9552, 2-(2-ethyl-3-benzofuranyl)-N-(2-morpholino-ethyl)-acetamidoxime]
effect on intensity of contractions of the nictitating membrane (adrenaline, electric stimulation) [2]: did not modify the intensity of the contractions of the membrane | LD0 (Mouse; intragastric): 250 mg/kg | LD95 (Mouse; intragastric): 1,250 mg/kg | LD0 (Mouse; intraperitoneal): 30 mg/kg | LD95 (Mouse; intraperitoneal): 110 mg/kg | Maximum fall in A.P. ([3]; daily doses (11 days) 10 mg/kg): 13 mm.Hg | Maximum fall in A.P. ([3]; daily doses (11 days) 25 mg/kg): 26 mm.Hg | Maximum fall in A.P. ([3]; daily doses (11 days) 50 mg/kg): 53 mm.Hg | Maximum fall in A.P. ([3]; single dose 10 mg/kg): 14 mm.Hg | Maximum fall in A.P. ([3]; single dose 25 mg/kg): 27 mm.Hg | Maximum fall in A.P. ([3]; single dose 50 mg/kg): 54 mm.Hg | Na^+ /K^+ Ratio (albino male rats; 10 mg/kg): 1.09 | K^+ excretion (albino male rats; 10 mg/kg): 15.3 mEq/l. | Na^+ excretion (albino male rats; 10 mg/kg): 24.8 mEq/l. | Urinary excretion (albino male rats; 10 mg/kg): 55% | Na^+ /K^+ Ratio (albino male rats; 20 mg/kg): 1.66 | K^+ excretion (albino male rats; 20 mg/kg): 17.5 mEq/l. | Na^+ excretion (albino male rats; 20 mg/kg): 43.0 mEq/l. | Urinary excretion (albino male rats; 20 mg/kg): 80% | Na^+ /K^+ Ratio (albino male rats; 50 mg/kg): 2.50 | K^+ excretion (albino male rats; 50 mg/kg): 15.0 mEq/l. | Na^+ excretion (albino male rats; 50 mg/kg): 55.6 mEq/l. | Urinary excretion (albino male rats; 50 mg/kg): 95% | Na^+ /K^+ Ratio (albino male rats; 100 mg/kg): 3.37 | K^+ excretion (albino male rats; 100 mg/kg): 14.3 mEq/l. | Na^+ excretion (albino male rats; 100 mg/kg): 71.3 mEq/l. | Urinary excretion (albino male rats; 100 mg/kg): 137% | Na^+ /K^+ Ratio (albino male rats; 200 mg/kg): 3.34 | K^+ excretion (albino male rats; 200 mg/kg): 15.8 mEq/l. | Na^+ excretion (albino male rats; 200 mg/kg): 78.0 mEq/l. | Urinary excretion (albino male rats; 200 mg/kg): 124% | sodium-excretion index (albino male rats; rat, in vivo): very favourable | activity in the five types of experimentally induced hypertension [4]: active | effect on the hypertensive effect of acetylcholine ([5]; 5 mg/kg intravenous, 1 mg/kg acetylcholine): did not alter the hypertensive effect | Maximum fall in A.P. ([6]; daily doses (11 days) 10 mg/kg): 17 mm.Hg | Maximum fall in A.P. ([6]; daily doses (11 days) 25 mg/kg): 35 mm.Hg | Maximum fall in A.P. ([6]; single dose 10 mg/kg): 18 mm.Hg | Maximum fall in A.P. ([6]; single dose 25 mg/kg): 37 mm.Hg | Maximum fall in A.P. ([6]; single dose 50 mg/kg): 56 mm.Hg | Fall in A.P. [1]: 36 mm.Hg | Maximum fall in A.P. ([1]; daily doses (11 days) 10 mg/kg): 18 mm.Hg | Maximum fall in A.P. ([1]; daily doses (11 days) 25 mg/kg): 32 mm.Hg | Maximum fall in A.P. ([1]; daily doses (11 days) 50 mg/kg): 47 mm.Hg | Maximum fall in A.P. ([1]; single dose 10 mg/kg): 14 mm.Hg | Maximum fall in A.P. ([1]; single dose 25 mg/kg): 36 mm.Hg | Maximum fall in A.P. ([1]; single dose 50 mg/kg): 55 mm.Hg | Maximum fall in A.P. ([7]; daily doses (11 days) 25 mg/kg): 15 mm.Hg | Maximum fall in A.P. ([7]; daily doses (11 days) 50 mg/kg): 30 mm.Hg | Maximum fall in A.P. ([7]; daily doses (11 days) 100 mg/kg): 49 mm.Hg | Maximum fall in A.P. ([7]; single dose 25 mg/kg): 18 mm.Hg | Maximum fall in A.P. ([7]; single dose 50 mg/kg): 26 mm.Hg | Maximum fall in A.P. ([7]; single dose 100 mg/kg): 45 mm.Hg | LD0 (Rat; intragastric): 1,100 mg/kg | LD95 (Rat; intragastric): 2,500 mg/kg | LD0 (Rat; intraperitoneal): 80 mg/kg | LD95 (Rat; intraperitoneal): 350 mg/kg | Maximum fall in A.P. ([8]; daily doses (11 days) 5 mg/kg): 0 mm.Hg | Maximum fall in A.P. ([8]; daily doses (11 days) 10 mg/kg): 26 mm.Hg | Maximum fall in A.P. ([8]; daily doses (11 days) 20 mg/kg): 47 mm.Hg | activity in genetic hypertension ([8]; rat, in vivo): especially active | Maximum fall in A.P. ([8]; single dose 5 mg/kg): 16 mm.Hg | Maximum fall in A.P. ([8]; single dose 10 mg/kg): 35 mm.Hg | Maximum fall in A.P. ([8]; single dose 20 mg/kg): 52 mm.Hg | Urinary excretion (male albino rats; 10 mg/kg): 84% | Urinary excretion (male albino rats; 20 mg/kg): 102% | Urinary excretion (male albino rats; 50 mg/kg): 118% | Urinary excretion (male albino rats; 100 mg/kg): 138% | Urinary excretion (male albino rats; 200 mg/kg): 165%

C[N+]1(CC(=O)c2ccc(-c3ccccc3)cc2)[C@@H]2CC[C@H]1C[C@@H](OC(=O)[C@H](CO)c1ccccc1)C2 (stereo partly shown) [phenthonium, reference compound]
effect on the hypertensive effect of acetylcholine ([5]; dose not stated, ganglioplegic substance): annulled the hypertensive effect of acetylcholine

CCc1oc2ccc(Cl)cc2c1CC(=NO)NCCN1CCOCC1 [2-(2-Ethyl-5-chloro-3-benzofuranyl)-N-(2-morpholino-ethyl)-acetamidoxime]
Fall in A.P. [1]: 21 mm.Hg

CCCN1CCN(C(=N)Cc2c(CC)oc3ccccc23)CC1 [2-(2-ethyl-3-benzofuranyl)-N,N-(3-n-propyl-3-aza-pentamethylene)-acetamidine dihydrochloride, reference compound]
activity in the treatment of experimentally induced hypertension [9]: pharmacologically active | fall in arterial pressure ([1]; 50 mg/kg): 14 mm.Hg | fall in arterial pressure ([1]; 200 mg/kg): 24 mm.Hg

NS(=O)(=O)c1cc2c(cc1Cl)NCNS2(=O)=O [hydrochlorothiazide, reference compound]
activity in this test ([1]; 200 mg/kg): inactive

Source: patent US4124710A, “Acetamidoxime derivatives and use thereof” (priority 1976, dated 1978)
